The source of these data is patent US20230046728A1, “TECHNOLOGIES USEFUL FOR ASSESSING PERMEABILITY” (FOG PHARMACEUTICALS, INC., priority 2019, published 2023).

For one series, the target named is DhaA enzyme (Rhodococcus rhodochrous, UniProt P0A3G2). The experiment in a line: Cell free peptide/DhaA conversion, Mass Shifted Peptide Theoretical Max signal (Example 6). The series is classed as biochemical. Particulars: DhaA converts —Cl input agent into —OH product agent, MS signal. As to the method:
For the cell free systems, DPLs were diluted in a 500 μL DPW plate (library dilution plate). Individual peptides were diluted individually in low-bind tubes until making the final working dilution in PBS. At this point, the individual peptides were transferred to the library dilution plate. By having all final dilutions in one plate, a multichannel was used to transfer the diluted peptides to the cell free plates. The same design as “Source Plate” was used for the cell assay. For the peptide only plate, 45 μL of PBS was added to each well and 5 μL of the diluted library/peptide was added in triplicates. For peptide/DhaA plate, 5 μL of 50 μM DhaA enzyme was added, followed by 40 μL of PBS and 5 μL of the diluted library/peptide. Both plates were kept at the bench top thermomixer at 350 rpm and 37 ° C. overnight. The next day, 2 mL of a cell free solution was prepared with 1 mL of DMSO, 20 μL of PepMix and 980 μL of a 1:1 ratio of ACN/0.1% FA and H2O/0.1% FA. 5 μL of the cell free solution was added to a 384 well plate, followed by 45 μL of the cell free sample.
(§1) Once all samples were added (including cell free), the plate was placed in an autosampler of a mass spectrometer. For the mass spectrometry analysis, methods from example 1 were employed.
Results from certain assessment were presented blow. Cell crash method was utilized. Mass Shifted Peptide Theoretical Max signal is signal of an agent comprising —OH obtained when using the DhaA to convert input agent comprising —Cl into product agent comprising —OH form without involving cells (multiple agents may be converted simultaneously; in some embodiments, can be performed library by library). In some embodiments, each library pool plus positive and negative references was tested in a single well, which in some cases contain about a million or so cells. Each library pool is an individually prepared library with no purifications—all members mixed together along with side products, etc. “Cell Penetration Score” is calculated by dividing “Mass Shifted Peptide Signal in Cells” by “Mass Shifted Peptide Theoretical Max Signal” for each pair of replicates, then averaging those values across replicates; additionally or alternatively, COR and/or RPF may also be utilized.

Series [1] deals with Expi293 cells transfected with His-Halotag. The experiment in a line: Library cell penetration assay, cell crash method (Example 6). It counts as in vitro ADME, human. Particulars: for Peptide Signal in Cells (from cells; agents comprising —Cl): MS signal of unconverted —Cl agent from cells; for Peptide Signal in Cells (from cells; agents comprising —Cl) / Mass Shifted Peptide Signal in Cells: library pool or individual peptide; for Mass Shifted Peptide Signal in Cells: MS signal of —OH agent from cells; for Cell Penetration Score: Mass Shifted Peptide Signal in Cells divided by Mass Shifted Peptide Theoretical Max Signal, averaged across replicates. As to the method: Animal cells (e.g., Expi293 cells or human HEK 293 cells) were seeded in tissue culture plates and cultured in Opti-MEM media. The cells were set in PETG flasks at a concentration of 6×10^5 cells/mL and a volume of 30 mL. The cell viability was checked to be above 90-93%. The flasks were placed in a shaking incubator at 300 rpm in 8% CO2.
After 24 hours of incubation, for each flask, one 1.5-mL Lo-bind tube and one 2-mL Lo-Bind tube were prepared. In the 1.5-mL tube, 30 μg of polyhistidine-tagged halotag (His-Halotag) plasmid and Opti-MEM media were added to provide a 1-mL mixture. In the 2-mL Lo-Bind tube, 60 μL of ExpiFectamine and 940 μL of Opti-MEM were added. After 5 minutes, the plasmid/Opti-MEM mixture was added to the ExpiFectamine/Opti-MEM mixture. The combined mixture was placed in an incubator at room temperature for 20 minutes, which was subsequently added to the flask.
After 48 hours of transfection, the transfected cells were checked for viability (90% or higher). The transfected cells were transferred to a protein Lo-Bind Eppendorf 96-well deep well plate (1000 μL), where each well contained 1 million cells in 500 μL of Expi293 media.
Solutions of candidate compounds, either individual peptides or peptides from a peptide library (DPLs), were received at a stock concentration of 10 mM and diluted in DMSO and kept in a “Source Plate”. For DPLs, the peptide concentration in the “Source Plate” was 1 mM, whereas for individual peptides, the concentration was either 100 μM (for a final concentration of 100 nM) or 10 μM (for a final concentration of 10 nM). […] of the DPL or individual peptide solution was added in triplicates to the 96-well plate. The cells were kept in a shaking incubator at 300 rpm and 37 ° C., 8% CO2 overnight for about 18-20 hours.
The following day, one of the following two methods was performed: i) capture beads method or ii) cell crash method.
Cell crash method: the 96-well plate was placed in the centrifuge at 300 g for 5 minutes. 720 μL of the supernatant was removed. The cells were resuspended in residual 200 μL of media. The suspensions were transferred to a 96-well v-bottom plate, which was placed in the centrifuge at 300 g for an additional 5 minutes. All remaining media was removed. The cell pellets were washed with 200 μL of PBS, mixed and placed back in the centrifuge at 300 g and 4 ° C. for an additional 5 minutes. The supernatant was removed and 80 μL of PBS was added.
80 μL of eluted proteins/peptides from the capture beads method or the PBD solution from the cell crash method was transferred into a deepwell low binding plate (500 μL). 80 μL of ammonium hydroxide was added. The plate was kept on a shaker at 37 ° C. for 3 hours. The plate was dried in a speedvac overnight.
The following day, the dried cell pellet was resuspended in 70 μL of 47.5% water with 0.1% FA/47.5% ACN with 0.1% FA/10 μM pepmix (10 mM stock)/5% fresh DMSO. The mixture was let sit in the plate for 1 hour to allow the dissolution of the pellet. If the sample appeared cloudy, more resuspension solution was added (50 μL at a time). 50 μL was transferred directly to the mass spec plate and the plate was sealed with the 384-well plate seal.
as §1
Results from certain assessment were presented blow. Cell crash method was utilized. Mass Shifted Peptide Theoretical Max signal is signal of an agent comprising —OH obtained when using the DhaA to convert input agent comprising —Cl into product agent comprising —OH form without involving cells (multiple agents may be converted simultaneously; in some embodiments, can be performed library by library). In some embodiments, each library pool plus positive and negative references was tested in a single well, which in some cases contain about a million or so cells. […]

DhaA enzyme, sequence (P0A3G2 whole entry): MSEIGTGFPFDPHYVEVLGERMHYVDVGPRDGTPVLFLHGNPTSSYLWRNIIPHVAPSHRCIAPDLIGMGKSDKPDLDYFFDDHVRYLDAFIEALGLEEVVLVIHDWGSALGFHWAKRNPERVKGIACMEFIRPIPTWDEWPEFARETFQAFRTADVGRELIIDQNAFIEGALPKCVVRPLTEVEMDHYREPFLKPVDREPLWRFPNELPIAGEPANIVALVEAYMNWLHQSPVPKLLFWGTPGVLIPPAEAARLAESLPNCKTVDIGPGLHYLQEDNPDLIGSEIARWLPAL

In the case of “HaloTagO2-Leu-Thr-Phe-ReN-Glu-Tyr-Trp-Ala-Thr-Cba-Az-Ser-Ala-Ala-NHMe [PEP000137]”, the “Mass Shifted Peptide Theoretical Max Signal” value at DhaA enzyme amounted to 6E+06. In series [1], the “Peptide Signal in Cells (from cells; agents comprising —Cl)” value was 0E+00, the “Mass Shifted Peptide Signal in Cells” value came out at 4E+05 and the “Cell Penetration Score” value amounted to 6.

For the substance “HaloTagO2-Leu-Thr-Phe-ReN-Glu-Tyr-Trp-Ala-Gln-Cba-Az-Ser-Ala-Ala-NHMe [PEP000131]”, the “Mass Shifted Peptide Theoretical Max Signal” value at DhaA enzyme was determined as 3E+06. In series [1], the “Peptide Signal in Cells (from cells; agents comprising —Cl)” value turned out to be 0E+00, the “Mass Shifted Peptide Signal in Cells” value came out at 1E+05 and the “Cell Penetration Score” value turned out to be 3.

As for “HaloTagO2-Leu-Thr-Phe-ReN-Ala-Tyr-Trp-Ala-Gln-Cba-Az-Ser-Ala-Ala-NH2 [PEP000127]”, the “Mass Shifted Peptide Theoretical Max Signal” value at DhaA enzyme turned out to be 8E+06. Also, in series [1], the “Peptide Signal in Cells (from cells; agents comprising —Cl)” value turned out to be 0E+00, the “Mass Shifted Peptide Signal in Cells” value stood at 1E+06 and the “Cell Penetration Score” value was 17.

For the substance “HaloTagO2-Leu-Thr-Phe-ReN-Thr-Tyr-Trp-Ala-Gln-Cba-Az-Ser-Ala-Ala-NH2 [PEP000129]”, the “Mass Shifted Peptide Theoretical Max Signal” value at DhaA enzyme was 6E+06. In addition, in series [1], the “Peptide Signal in Cells (from cells; agents comprising —Cl)” value came out at 0E+00, the “Mass Shifted Peptide Signal in Cells” value is 1E+06 and the “Cell Penetration Score” value was found to be 19.

With “HaloTagO2-Leu-Thr-Phe-ReN-Glu-Tyr-Trp-Ala-Ala-Cba-Az-Ser-Ala-Ala-NH2 [PEP000133]”, the “Mass Shifted Peptide Theoretical Max Signal” value on DhaA enzyme is recorded as 5E+06. Moreover, in series [1], the “Peptide Signal in Cells (from cells; agents comprising —Cl)” value was found to be 0E+00, the “Mass Shifted Peptide Signal in Cells” value is 3E+05 and the “Cell Penetration Score” value was found to be 5.

For the substance “HaloTagO2-Leu-Thr-Phe-ReN-Glu-Tyr-Trp-Ala-Ala-Cba-Az-Ser-Ala-Ala-NHMe [PEP000135]”, the “Mass Shifted Peptide Theoretical Max Signal” value on DhaA enzyme came to 5E+06. Moreover, in series [1], the “Peptide Signal in Cells (from cells; agents comprising —Cl)” value was determined as 0E+00, the “Mass Shifted Peptide Signal in Cells” value stood at 3E+05 and the “Cell Penetration Score” value came to 7.

In the case of “HaloTagO2-Leu-Thr-Phe-ReN-Ala-Tyr-Trp-Ala-Gln-Cba-Az-Ser-Ala-Ala-NHMe [PEP000130]”, on DhaA enzyme, the “Mass Shifted Peptide Theoretical Max Signal” value is on record as 7E+06. In series [1], the “Peptide Signal in Cells (from cells; agents comprising —Cl)” value turned out to be 5E+03, the “Mass Shifted Peptide Signal in Cells” value worked out at 2E+06 and the “Cell Penetration Score” value is 27.

In the case of “HaloTagO2-Leu-Thr-Phe-ReN-Thr-Tyr-Trp-Ala-Gln-Cba-Az-Ser-Ala-Ala-NHMe [PEP000132]”, the “Mass Shifted Peptide Theoretical Max Signal” value at DhaA enzyme stood at 6E+06. For the same substance, in series [1], the “Peptide Signal in Cells (from cells; agents comprising —Cl)” value is recorded as 0E+00, the “Mass Shifted Peptide Signal in Cells” value is 1E+06 and the “Cell Penetration Score” value is recorded as 20.
